The term ΔTm denotes the change in melting temperature against a reference sample. A word on the IC50: it is the point on the concentration scale where inhibition reaches its midpoint. A lower IC50 goes with inhibition by little substance.

From ChEMBL document CHEMBL4052588, “Design of a Biased Potent Small Molecule Inhibitor of the Bromodomain and PHD Finger-Containing (BRPF) Proteins Suitable for Cellular and in Vivo Studies” (J Med Chem, 2017) come the findings set out here.

Assay [1] has as its target T1, Bromodomain-containing protein 9 (Homo sapiens) (UniProt Q9H8M2).
T1 sequence (whole entry): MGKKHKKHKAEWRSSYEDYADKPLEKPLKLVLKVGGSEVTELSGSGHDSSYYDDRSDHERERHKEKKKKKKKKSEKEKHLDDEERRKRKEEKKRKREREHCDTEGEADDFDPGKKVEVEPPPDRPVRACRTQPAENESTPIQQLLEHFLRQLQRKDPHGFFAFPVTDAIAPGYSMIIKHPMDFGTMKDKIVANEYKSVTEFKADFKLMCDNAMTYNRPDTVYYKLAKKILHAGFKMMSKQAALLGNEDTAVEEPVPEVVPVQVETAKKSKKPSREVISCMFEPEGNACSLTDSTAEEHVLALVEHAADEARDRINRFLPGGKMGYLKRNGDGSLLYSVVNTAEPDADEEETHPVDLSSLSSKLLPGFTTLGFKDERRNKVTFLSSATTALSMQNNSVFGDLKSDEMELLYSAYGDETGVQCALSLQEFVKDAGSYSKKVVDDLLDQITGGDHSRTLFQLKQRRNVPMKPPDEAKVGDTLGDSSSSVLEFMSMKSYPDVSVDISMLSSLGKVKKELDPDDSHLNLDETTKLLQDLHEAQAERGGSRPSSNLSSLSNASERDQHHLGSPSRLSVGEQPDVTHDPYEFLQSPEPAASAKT

Assay [2] deals with Bromodomain-containing protein 4 (Homo sapiens, UniProt O60885). The assay can be described thus: Inhibition of human His tagged BRD4-BD1 incubated for 30 mins followed by addition of biotinylated peptide and further incubation for 30 mins measured by AlphaScreen assay. On the technique in general: Alpha assays give light when donor and acceptor beads are brought close together.

Assay [3] concerns the target T2, ATPase family AAA domain-containing protein 2 (Homo sapiens, UniProt Q6PL18).
T2 sequence (Q6PL18 whole entry): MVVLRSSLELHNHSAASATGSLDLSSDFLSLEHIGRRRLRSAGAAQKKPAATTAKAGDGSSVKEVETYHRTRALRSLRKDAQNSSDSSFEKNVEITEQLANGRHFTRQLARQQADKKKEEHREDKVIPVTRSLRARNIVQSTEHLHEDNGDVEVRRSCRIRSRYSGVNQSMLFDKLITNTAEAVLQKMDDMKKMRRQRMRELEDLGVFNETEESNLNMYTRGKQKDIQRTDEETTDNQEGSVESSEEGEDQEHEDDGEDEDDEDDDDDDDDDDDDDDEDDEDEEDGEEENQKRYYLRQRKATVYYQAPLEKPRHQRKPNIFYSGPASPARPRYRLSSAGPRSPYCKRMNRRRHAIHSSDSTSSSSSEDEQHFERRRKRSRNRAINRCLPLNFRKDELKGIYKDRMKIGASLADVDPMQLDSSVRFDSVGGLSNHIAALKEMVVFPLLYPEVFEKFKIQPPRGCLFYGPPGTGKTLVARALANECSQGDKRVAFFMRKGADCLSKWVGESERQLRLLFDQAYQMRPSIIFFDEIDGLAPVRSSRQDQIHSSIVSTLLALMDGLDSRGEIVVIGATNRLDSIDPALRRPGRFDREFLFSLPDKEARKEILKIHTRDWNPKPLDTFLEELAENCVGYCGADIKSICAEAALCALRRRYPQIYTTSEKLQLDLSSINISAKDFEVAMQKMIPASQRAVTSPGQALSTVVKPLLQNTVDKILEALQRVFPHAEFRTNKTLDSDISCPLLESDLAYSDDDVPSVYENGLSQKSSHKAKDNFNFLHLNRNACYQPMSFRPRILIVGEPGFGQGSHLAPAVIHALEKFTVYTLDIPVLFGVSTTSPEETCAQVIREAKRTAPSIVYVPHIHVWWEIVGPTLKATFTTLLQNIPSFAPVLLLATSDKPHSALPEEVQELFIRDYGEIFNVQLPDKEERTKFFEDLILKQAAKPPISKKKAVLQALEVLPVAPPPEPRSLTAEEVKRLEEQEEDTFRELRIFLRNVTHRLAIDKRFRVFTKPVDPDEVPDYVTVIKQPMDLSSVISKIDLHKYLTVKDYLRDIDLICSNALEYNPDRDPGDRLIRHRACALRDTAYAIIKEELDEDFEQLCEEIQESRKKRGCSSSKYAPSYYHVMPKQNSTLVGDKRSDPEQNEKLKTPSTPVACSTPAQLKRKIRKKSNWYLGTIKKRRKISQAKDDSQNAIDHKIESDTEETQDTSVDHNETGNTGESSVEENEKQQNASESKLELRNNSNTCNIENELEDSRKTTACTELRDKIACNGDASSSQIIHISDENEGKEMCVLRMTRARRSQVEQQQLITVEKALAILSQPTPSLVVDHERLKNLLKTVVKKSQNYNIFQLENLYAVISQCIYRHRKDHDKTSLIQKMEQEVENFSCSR
The assay can be described thus: Inhibition of human ATAD2A expressed in Escherichia coli BL21 after 1 hr by BROMOscan assay.

As for `Cc1cc2cc(NS(=O)(=O)c3ccc(C#N)cc3)ccc2n(C)c1=O`, the shift in melting temperature (ΔTm) in assay [1] is 3.5 °C. The figures for the IC50 in assay [2] and in assay [3] were > 20 µM and > 100 µM, respectively.

With `CCc1cc2cc(NS(=O)(=O)c3ccc(C#N)cc3)ccc2n(CC)c1=O`, the results for the IC50 in assay [2] and in assay [3] were > 20 µM and > 100 µM, respectively.

With `Cc1cc(C#N)ccc1S(=O)(=O)Nc1ccc2c(ccc(=O)n2C)c1`, in assay [1], the shift in melting temperature (ΔTm) amounted to 2.2 °C.
